Experimental data published in US7799814B2, “Thiazole derivatives and use thereof” (Merck Serono S.A., priority 2005, dated 2010).

These molecules were tested against Human recombinant GST-PI3Kγ (Homo sapiens, UniProt P48736) (assay: High Throughput PI3K Lipid Kinase Assay (scintillation proximity assay, neomycin-coated SPA beads)). Conditions: not given.
Type: biochemical
Excerpt: a) High Throughput PI3K Lipid Kinase Assay (Binding Assay):
The efficacy of compounds of the invention in inhibiting the PI3K induced-lipid phosphorylation may be tested in the following binding assay.
The assay combines the scintillation proximity assay technology (SPA, Amersham) with the capacity of neomycin (a polycationic antibiotic) to bind phospholipids with high affinity and specificity. The Scintillation Proximity Assay is based on the properties of weakly emitting isotopes (such as ^3H, ^125I, ^33P). Coating SPA beads with neomycin allows the detection of phosphorylated lipid substrates after incubation with recombinant PI3K and radioactive ATP in the same well, by capturing the radioactive phospholipids to the SPA beads through their specific binding to neomycin.
To a 384 wells MTP containing 5 μl of the test compound of Formula (I) (solubilized in 6% DMSO; to yield a concentration of 100, 30, 10, 3, 1, 0.3, 0.1, 0.03, 0.01, 01 μM of the test compound), the following assay components are added. 1) 5 μl (58 ng) of Human recombinant GST-PI3Kγ (in Hepes 40 mM, pH 7.4, DTT 1 mM and ethylenglycol 5%) 2) 10 μl of lipid micelles and 3) 10 μl of Kinase buffer ([^33P]γ ATP. 45 μM/60 nCi, MgCl mM, DTT 1 mM, β Glycerophosphate 1 mM, NVO4 100 μM, Na Cholate 0.3%, in Hepes 40 mM, pH 7.4). After incubation at room temperature for 180 minutes, with gentle agitation, the reaction is stopped by addition of 60 μl of a solution containing 100 μg of neomycin-coated PVT SPA beads in PBS containing ATP 10 mM and EDTA 5 mM. The assay is further incubated at room temperature for 60 minutes with gentle agitation to allow binding of phospholipids to neomycin-SPA beads. After precipitation of the neomycin-coated PVT SPA beads for 5 minutes at 1500×g, radioactive PtdIns(3)P is quantified by scintillation counting in a Wallac MicroBeta™ plate counter.
The values indicated in Table I below refer to the IC50 (μM) with respect to PI3Kγ, i.e. the amount necessary to achieve 50% inhibition of said target. Said values show a considerable inhibitory potency of thiazole compounds with regard to PI3Kγ.

Human recombinant GST-PI3Kγ, sequence (P48736 whole entry): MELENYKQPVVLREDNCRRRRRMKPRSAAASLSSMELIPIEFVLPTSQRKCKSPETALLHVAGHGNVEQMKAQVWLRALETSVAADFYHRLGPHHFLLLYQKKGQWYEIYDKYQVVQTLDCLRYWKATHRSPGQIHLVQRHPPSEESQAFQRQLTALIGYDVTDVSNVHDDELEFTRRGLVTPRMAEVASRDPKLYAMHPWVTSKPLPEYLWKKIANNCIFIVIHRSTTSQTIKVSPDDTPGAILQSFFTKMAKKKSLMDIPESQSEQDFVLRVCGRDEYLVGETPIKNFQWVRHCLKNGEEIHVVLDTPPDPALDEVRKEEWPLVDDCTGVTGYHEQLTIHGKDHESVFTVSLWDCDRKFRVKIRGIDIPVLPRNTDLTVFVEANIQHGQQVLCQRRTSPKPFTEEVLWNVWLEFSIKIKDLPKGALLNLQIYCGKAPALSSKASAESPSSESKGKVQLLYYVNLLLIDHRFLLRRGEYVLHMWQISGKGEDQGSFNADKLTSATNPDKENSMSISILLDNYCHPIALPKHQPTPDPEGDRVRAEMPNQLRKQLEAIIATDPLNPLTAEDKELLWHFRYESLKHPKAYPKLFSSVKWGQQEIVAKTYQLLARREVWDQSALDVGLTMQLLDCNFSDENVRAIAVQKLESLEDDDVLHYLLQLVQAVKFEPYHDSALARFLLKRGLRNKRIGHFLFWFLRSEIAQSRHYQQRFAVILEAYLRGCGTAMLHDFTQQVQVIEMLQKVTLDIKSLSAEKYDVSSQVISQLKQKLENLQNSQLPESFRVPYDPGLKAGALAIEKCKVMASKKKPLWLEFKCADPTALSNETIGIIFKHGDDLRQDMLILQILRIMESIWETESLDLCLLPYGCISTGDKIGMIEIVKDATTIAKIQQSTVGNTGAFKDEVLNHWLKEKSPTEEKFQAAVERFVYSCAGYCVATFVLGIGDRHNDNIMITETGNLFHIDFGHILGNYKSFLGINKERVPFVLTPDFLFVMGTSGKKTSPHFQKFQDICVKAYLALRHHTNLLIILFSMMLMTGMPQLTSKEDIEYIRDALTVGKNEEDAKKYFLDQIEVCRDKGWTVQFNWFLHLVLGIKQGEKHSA

Row | IC50 | SMILES
1 | 870 nM | CCOC(=O)c1nc(-c2sc(NC(C)=O)nc2C)cs1 [Example 1, Ethyl 2′-(acetylamino)-4′-methyl-4,5′-bi-1,3-thiazole-2-carboxylate]
2 | 494 nM | CC(=O)Nc1nc(C)c(-c2csc(C(=O)O)n2)s1 [Example 4, 2′-(Acetylamino)-4′-methyl-4,5′-bi-1,3-thiazole-2-carboxylic acid]
3 | 355 nM | CC(=O)Nc1nc(C)c(-c2csc(C(=O)NCC3CCCO3)n2)s1 (stereo not shown) [Example 6, 2′-(Acetylamino)-4′-methyl-N-(tetrahydrofuran-2-ylmethyl)-4,5′-bi-1,3-thiazole-2-carboxamide]
4 | 186 nM | CC(=O)Nc1nc(C)c(-c2csc(C(=O)N3CCOCC3)n2)s1 [Example 8, N-[4′-methyl-2-(morpholin-4-ylcarbonyl)-4,5′-bi-1,3-thiazol-2′-yl]acetamide]
5 | 601 nM | CC(=O)Nc1nc(C)c(-c2csc(C(=O)N3CCN(C)CC3)n2)s1 [Example 9, N-{4′-methyl-2-[(4-methylpiperazin-1-yl)carbonyl]-4,5′-bi-1,3-thiazol-2′-yl}acetamide]
6 | 2200 nM | CC(=O)Nc1nc(C)c(-c2csc(C(=O)NCCCN(C)C)n2)s1 [Example 10, 2′-(Acetylamino)-N-[3-(dimethylamino)propyl]-4′-methyl-4,5′-bi-1,3-thiazole-2-carboxamide]
7 | 1540 nM | CC(=O)Nc1nc(C)c(-c2csc(C(=O)Nc3cccc(-c4nnc(N)s4)c3)n2)s1 [Example 25, 2′-(acetylamino)-N-[3-(5-amino-1,3,4-thiadiazol-2-yl)phenyl]-4′-methyl-4,5′-bi-1,3-thiazole-2-carboxamide]
8 | 795 nM | COCCNC(=O)Nc1nc(C)c(-c2csc(C(=O)N3CCOCC3)n2)s1 [Example 36, N-(2-methoxyethyl)-N′-[4′-methyl-2-(morpholin-4-ylcarbonyl)-4,5′-bi-1,3-thiazol-2′-yl]urea]
9 | 1420 nM | CCOC(=O)c1nc(-c2sc(Nc3cnccn3)nc2C)cs1 [Example 54, Ethyl 4′-methyl-2′-(pyrazin-2-ylamino)-4,5′-bi-1,3-thiazole-2-carboxylate]

Row | SMILES | IC50
10 | CC(=O)Nc1nc(C)c(-c2csc(C(=O)Nc3nnn[nH]3)n2)s1 [Example 13, 2′-(acetylamino)-4′-methyl-N-1H-tetrazol-5-yl-4,5′-bi-1,3-thiazole-2-carboxamide] | 13 nM
11 | CC(=O)Nc1nc(C)c(-c2csc(Cc3nnn[nH]3)n2)s1 [Example 23, N-[4′-methyl-2-(2H-tetrazol-5-ylmethyl)-4,5′-bi-1,3-thiazol-2′-yl]acetamide] | 328 nM

These molecules were tested on Akt/PKB phosphorylation in Raw 264-7 macrophages (assay: Cell based ELISA to monitor PI3K inhibition: Akt/PKB phosphorylation in macrophages after stimulation with Complement 5a). Conditions: Mus musculus, RAW264.7, 50 nM Complement 5a stimulation, phospho Serine 473 Akt, read-out: Cell Assay (P-Akt, Elisa) IC50.
Method: b) Cell Based ELISA to Monitor PI3K Inhibition:
The efficacy of compounds of the invention in inhibiting the PI3K induced Akt/PKB phosphorylation may be tested in the following cell based assay.
Measurement of Akt/PKB phosphorylation in macrophages after stimulation with Complement 5a: Raw 264: Raw 264-7 macrophages (cultured in DMEM-F12 medium containing 10% Fetal Calf serum and antibiotics) are plated at 20'000 cells/well in a 96 MTP 24 h before cell stimulation. Prior to the stimulation with 50 nM of Complement 5a during 5 minutes, Cells are serum starved for 2 h, and pretreated with inhibitors for 20 minutes. After stimulation cells are fixed in 4% formaldehyde for 20 minutes and washed 3 times in PBS containing 1% Triton X-100 (PBS/Triton). […] Next, phosphorylated Akt/PKB is detected by an overnight incubation at 4° C. with primary antibody (anti phospho Serine 473 Akt IHC, Cell Signaling) diluted 800-fold in PBS/Triton, containing 5% bovine serum albumin (BSA). After 3 washes in PBS/Triton, cells are incubated for 60 minutes with a peroxidase conjugated goat-anti-rabbit secondary antibody ( 1/400 dilution in PBS/Triton, containing 5% BSA), washed 3 times in PBS/Triton, and 2 times in PBS and further incubated in 100 μl of luminescent substrate reagent solution (Pierce) for 2 minutes, followed by the reading (1 s/well). […]

Row | IC50 | SMILES
12 | 710 nM | C=CCNC(=O)c1nc(-c2sc(NC(C)=O)nc2C)cs1 [Example 2, 2′-(Acetylamino)-N-allyl-4′-methyl-4,5′-bi-1,3-thiazole-2-carboxamide]
13 | 910 nM | CC(=O)Nc1nc(C)c(-c2csc(C(=O)N3CCOCC3)n2)s1 [Example 8, N-[4′-methyl-2-(morpholin-4-ylcarbonyl)-4,5′-bi-1,3-thiazol-2′-yl]acetamide]
